Columns and labels:
[1] = system: Escherichia coli; assay: Inhibition of Escherichia coli MurD assessed as residual activity at 250 uM
[2] = system: Escherichia coli; assay: Inhibition of Escherichia coli MurD assessed as residual activity at 500 uM
[3] = system: Escherichia coli; assay: Inhibition of Escherichia coli MurF assessed as residual activity at 250 uM
[4] = system: Escherichia coli; assay: Inhibition of Escherichia coli MurC assessed as residual activity at 250 uM
[5] = Inhibition of Escherichia coli MurD assessed as residual activity
[6] = system: Escherichia coli; assay: Inhibition of Escherichia coli MurE assessed as residual activity at 250 uM

SMILES | Activity [1] [%] | Activity [2] [%] | further results
O=C(O)CC[C@H](NC(=O)c1ccc(CNc2ccc(/C=C3\SC(=S)NC3=O)cc2)cc1)C(=O)O | 68 | – | –
COC(=O)CC[C@@H](NC(=O)c1ccc(CNc2ccc3nc(N)nc(N)c3c2)cc1)C(=O)OC | – | 87 | –
O=C(O)CC[C@@H](NC(=O)c1ccc(CNc2cccc(/C=C3\SC(=S)NC3=O)c2)cc1)C(=O)O | – | – | Activity [3]: 79%; Activity [4]: 78%; IC50 [5]: 174 µM; Activity [6]: 96%
COC(=O)CC[C@H](NC(=O)c1ccc(CNc2ccc3[nH]c(=O)[nH]c(=O)c3c2)cc1)C(=O)OC | – | 92 | –
Nc1nc(N)c2cc(NCc3ccc(C(=O)N[C@H](CCC(=O)O)C(=O)O)cc3)ccc2n1 | – | 82 | –
COC(=O)CC[C@H](NC(=O)c1ccc(CNc2ccc3nc(N)nc(N)c3c2)cc1)C(=O)OC | – | 81 | –
Nc1nc(=O)c2nc(CNc3ccc(C(=O)N[C@@H](CCC(=O)O)C(=O)O)cc3)cnc2[nH]1 | – | 95 | –
O=C(O)CC[C@@H](NC(=O)c1ccc(CNc2cccc(/C=C3\SC(=O)NC3=O)c2)cc1)C(=O)O | 85 | – | –
COC(=O)CC[C@@H](NC(=O)c1ccc(CNc2ccc3[nH]c(=O)[nH]c(=O)c3c2)cc1)C(=O)OC | – | 91 | –
O=C(O)CC[C@H](NC(=O)c1ccc(CNc2ccc(/C=C3\SC(=O)NC3=O)cc2)cc1)C(=O)O | 88 | – | –
COC(=O)CC[C@H](NC(=O)c1ccc(NCc2cnc3[nH]c(N)nc(=O)c3n2)cc1)C(=O)OC | – | 96 | –
O=C(O)CC[C@H](NC(=O)c1ccc(CNc2cccc(/C=C3\SC(=S)NC3=O)c2)cc1)C(=O)O | – | – | Activity [3]: 77%; Activity [4]: 76%; IC50 [5]: 206 µM; Activity [6]: 91%
O=C(O)CC[C@@H](NC(=O)c1ccc(CNc2ccc(/C=C3\SC(=O)NC3=O)cc2)cc1)C(=O)O | 70 | – | –
O=C(O)CC[C@@H](NC(=O)c1ccc(CNc2ccc(/C=C3\SC(=S)NC3=O)cc2)cc1)C(=O)O | 74 | – | –
O=C(O)CC[C@@H](NC(=O)c1ccc(CNc2ccc3[nH]c(=O)[nH]c(=O)c3c2)cc1)C(=O)O | – | 77 | –
O=C(O)CC[C@H](NC(=O)c1ccc(CNc2cccc(/C=C3\SC(=O)NC3=O)c2)cc1)C(=O)O | 87 | – | –
O=C(O)CC[C@H](NC(=O)c1ccc(CNc2ccc3[nH]c(=O)[nH]c(=O)c3c2)cc1)C(=O)O | – | 81 | –
Nc1nc(N)c2cc(NCc3ccc(C(=O)N[C@@H](CCC(=O)O)C(=O)O)cc3)ccc2n1 | – | 80 | –

From ChEMBL document CHEMBL1139265, “Synthesis and biological evaluation of new glutamic acid-based inhibitors of MurD ligase” (Bioorg Med Chem Lett, 2009)
